# Key:
# Hs-Mtq2 + Hs-Trm112 = Hs-Mtq2 + Hs-Trm112 (Homo sapiens, UniProt Q9Y5N5); settings: labelled compound; with Hs-Trm112; methylation buffer, 30 °C, 15 min
# Ec-Mtq2-Trm112 = Ec-Mtq2-Trm112 (Encephalitozoon cuniculi, UniProt Q8SRR4); settings: SAM co-purified with the complex; contacts only Mtq2 residues
# yeast Mtq2-Trm112 = yeast Mtq2-Trm112 (Saccharomyces cerevisiae, UniProt Q03920); settings: labelled compound; eRF1, eRF3 and GTP present
# Chain of yeast Mtq2-Trm112 (Q03920 whole entry): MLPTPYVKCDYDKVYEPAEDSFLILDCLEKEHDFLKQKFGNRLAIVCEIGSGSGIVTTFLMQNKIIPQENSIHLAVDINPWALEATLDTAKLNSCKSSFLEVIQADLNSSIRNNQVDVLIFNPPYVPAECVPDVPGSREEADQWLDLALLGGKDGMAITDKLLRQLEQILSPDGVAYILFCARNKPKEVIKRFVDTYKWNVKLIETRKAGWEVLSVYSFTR
# Chain of yeast Mtq2-Trm112 (P53738 whole entry partner): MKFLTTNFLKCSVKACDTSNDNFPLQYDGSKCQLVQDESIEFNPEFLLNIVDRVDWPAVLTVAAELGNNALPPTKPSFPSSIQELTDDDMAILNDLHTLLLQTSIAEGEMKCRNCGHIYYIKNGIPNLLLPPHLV
# Chain of Ec-Mtq2-Trm112 (Q8SRR4 1-164): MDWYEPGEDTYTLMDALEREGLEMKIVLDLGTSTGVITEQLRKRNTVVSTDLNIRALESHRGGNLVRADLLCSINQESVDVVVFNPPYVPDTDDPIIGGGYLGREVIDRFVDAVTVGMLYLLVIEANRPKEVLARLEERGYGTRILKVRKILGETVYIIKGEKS
# Chain of Ec-Mtq2-Trm112 (Q8SUP0 1-125 partner): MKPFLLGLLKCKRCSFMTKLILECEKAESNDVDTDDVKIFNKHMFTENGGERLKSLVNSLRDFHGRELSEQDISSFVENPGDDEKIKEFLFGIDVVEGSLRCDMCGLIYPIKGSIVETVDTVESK
# Chain of Hs-Mtq2 + Hs-Trm112 (Q9Y5N5 whole entry): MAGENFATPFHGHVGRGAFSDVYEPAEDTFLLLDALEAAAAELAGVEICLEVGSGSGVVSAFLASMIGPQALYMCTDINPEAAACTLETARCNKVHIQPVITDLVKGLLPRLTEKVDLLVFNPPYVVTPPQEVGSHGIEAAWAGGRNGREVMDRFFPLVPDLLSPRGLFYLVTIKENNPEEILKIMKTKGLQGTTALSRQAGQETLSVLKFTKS
# Chain of Hs-Mtq2 + Hs-Trm112 (Q9UI30 whole entry partner): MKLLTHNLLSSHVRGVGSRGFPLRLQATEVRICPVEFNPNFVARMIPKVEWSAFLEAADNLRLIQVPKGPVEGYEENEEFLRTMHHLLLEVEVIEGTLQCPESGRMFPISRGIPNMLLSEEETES
smiles,measurement,setting,value
C[S+](CC[C@H](N)C(=O)O)C[C@H]1O[C@@H](n2cnc3c(N)ncnc32)[C@H](O)[C@@H]1O (stereo partly drawn) [SAM],SAM-binding activity,Hs-Mtq2 + Hs-Trm112,Incubation of this protein with an equimolar amount of Hs-Trm112 resulted in restoration of SAM-binding activity
same,"X-ray crystal structure, 2.1 Å",Ec-Mtq2-Trm112,an unambiguous electron density corresponding to a SAM molecule is present in its expected binding site
same,"[3H]SAM methylation of eRF1, initial velocity",yeast Mtq2-Trm112,"incubating eRF1, eRF3 and GTP with Mtq2-Trm112 complex in presence of [3H] SAM"
